# PMC8010149, “A Therapeutic Strategy to Combat HIV-1 Latently Infected Cells With a Combination of Latency-Reversing Agents Containing DAG-Lactone PKC Activators” (Frontiers in Microbiology, 2021)
# Tested on: HIV-1 in CD4+ T cells from HIV-1-infected individuals
# Assay: Ex vivo reactivation, intracellular HIV-1 mRNA in primary CD4+ T cells from HIV-1-infected individuals
# Type: cell-based
# Conditions: 10 μM YSE028, 24 h, seven individuals
# Method: Primary cells were isolated from seven HIV-1^+ individuals, and ex vivo reactivation experiments were conducted as previously described ([Matsuda et al., 2019]). In brief, peripheral blood samples were collected from HIV-1-infected participants receiving cART for at least 5 years (Table 1). All subjects maintained a low viral load (<20 copies/ml, except for occasional “blips”) during therapy. CD4^+ T cell counts in peripheral blood samples ranged from 477 to 992 cells/mm^3 (average: 631 cells/mm^3), and plasma viral loads were <20 copies/ml (except for one participant whose viral load was 22 copies/ml) as measured by quantitative PCR (qPCR; COBAS AmpliPrep/COBAS TaqMan HIV-1 Test version 2.0; Roche Diagnostics, Basel, Switzerland) at the time of study enrollment. The Ethics Committee at the National Center for Global Health and Medicine approved this study (NCGM-G-002259-00), and each patient provided written informed consent. […] The number of HIV-1 RNA copies was calculated using a standard curve obtained from serially diluted HIV-1pNL4-3 plasmid, and normalized values [HIV-1 RNA copies/input RNA (ng)] for each drug were compared to those without drug treatment. The relative increase in HIV-1 RNA levels in the presence of each drug or combination was then determined.
smiles,measurement,value
CCCC(CCC)C(=O)OCC1(CO)CC(=C(C)C)C(=O)O1 (stereo not shown) [YSE028],HIV-1 mRNA compared to no drug control,1.66 fold
